Reference: ChEMBL document CHEMBL5385906, “Discovery of a Potent, Selective, and Orally Bioavailable Tool Compound for Probing the Role of Lysophosphatidic Acid Type 2 Receptor Antagonists in Fibrotic Disorders” (J Med Chem, 2023)

Columns and labels:
[1] = biological target: T1, Lysophosphatidic acid receptor 2 (Mus musculus, UniProt Q9JL06); test: Antagonist activity at mouse LPA2 receptor expressed in HeLa cells assessed as inhibition of LPA-induced calcium mobilization pretreated for 15 mins followed by LPA stimulation by FLIPR analysis; format: functional, cell-based
[2] = Efflux ratio of apparent permeability across apical to basolateral to basolateral to apical side in human Caco-2 cells at 10 uM measured after 60 mins by LC-MS/MS analysis
[3] = Protein binding in human plasma assessed as fraction unbound at 0.5 uM measured after 5 hrs by LC-MS/MS analysis
[4] = Protein binding in mouse plasma assessed as fraction unbound at 0.5 uM measured after 5 hrs by LC-MS/MS analysis
[5] = Protein binding in mouse lungs assessed as fraction unbound at 5 uM measured after 5 hrs by LC-MS/MS analysis
[6] = Half life in C57BL/6J mouse at 5 mg/kg, po or 4 mg/kg, iv by UPLC-MS/MS analysis; details: in vivo
[7] = Apparent permeability across apical to basolateral side in human Caco-2 cells at 10 uM measured after 60 mins by LC-MS/MS analysis
[8] = Apparent permeability across basolateral to apical side in human Caco-2 cells at 10 uM measured after 60 mins by LC-MS/MS analysis
[9] = biological target: Lysophosphatidic acid receptor 2 (Homo sapiens, UniProt Q9HBW0)
Description: Antagonist activity at human LPA2 receptor expressed in CHO cells assessed as inhibition of LPA-induced calcium mobilization pretreated for 15 mins followed by LPA stimulation by FLIPR analysis

[10] = biological target: T1, Lysophosphatidic acid receptor 2
Description: Antagonist activity at LPA2 receptor expressed in C57BL/6 mouse primary alveolar epithelial cells assessed as inhibition of LPA-induced calcium mobilization pretreated for 15 mins followed by LPA stimulation by FLIPR analysis

[11] = biological target: Lysophosphatidic acid receptor 1 (Homo sapiens, UniProt Q92633)
Description: Antagonist activity at human LPA1 receptor expressed in CHO cells assessed as inhibition of LPA-induced calcium mobilization pretreated for 15 mins followed by LPA stimulation by FLIPR analysis

[12] = biological target: T2, Lysophosphatidic acid receptor 3 (Homo sapiens, UniProt Q9UBY5)
T2 sequence (Q9UBY5 whole entry): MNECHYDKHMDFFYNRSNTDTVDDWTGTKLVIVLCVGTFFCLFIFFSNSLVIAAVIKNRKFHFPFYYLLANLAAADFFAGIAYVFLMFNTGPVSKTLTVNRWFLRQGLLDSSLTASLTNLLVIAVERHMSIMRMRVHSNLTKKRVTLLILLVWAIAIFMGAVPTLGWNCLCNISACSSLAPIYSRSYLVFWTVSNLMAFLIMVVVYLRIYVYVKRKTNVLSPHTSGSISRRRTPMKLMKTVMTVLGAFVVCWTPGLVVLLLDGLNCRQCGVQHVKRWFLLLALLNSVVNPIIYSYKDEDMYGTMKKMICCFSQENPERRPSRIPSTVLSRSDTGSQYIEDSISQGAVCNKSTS
Description: Antagonist activity at human LPA3 receptor expressed in HeLa cells assessed as inhibition of LPA-induced calcium mobilization pretreated for 15 mins followed by LPA stimulation by FLIPR analysis

[13] = biological target: Lysophosphatidic acid receptor 4 (Homo sapiens, UniProt Q99677)
[14] = biological target: Lysophosphatidic acid receptor 5 (Homo sapiens, UniProt Q9H1C0)
Description: Antagonist activity at human LPA5 receptor expressed in HeLa cells assessed as inhibition of LPA-induced calcium mobilization pretreated for 15 mins followed by LPA stimulation by FLIPR analysis

in vivo [15] = details: C57BL/6J, mouse, po, 5 mg/kg
Description: Oral bioavailability in C57BL/6J mouse at 5 mg/kg by UPLC-MS/MS analysis

in vitro [16] = details: human, liver microsomes, CLH
Description: Intrinsic clearance in human liver microsomes at 0.5 uM in presence of NADPH regenerating system measured for 45 mins per mg protein by LC-MS/MS analysis

in vitro [17] = details: C57BL/6J, mouse, liver microsomes
Description: Intrinsic clearance in C57BL/6J mouse liver microsomes at 0.5 uM in presence of NADPH regenerating system measured for 45 mins per mg protein by LC-MS/MS analysis

in vivo [18] = details: C57BL/6J, mouse, po, 24.8 mg/kg
Description: Half life in C57BL/6J mouse at 24.8 mg/kg, po and 1.8 mg/kg, iv by LC-MS/MS analysis

in vivo [19] = details: C57BL/6J, mouse, po, 24.8 mg/kg; remark: listed apart in the source
Description: Oral absorption in C57BL/6J mouse at 24.8 mg/kg by LC-MS/MS analysis

in vivo [20] = details: C57BL/6J, mouse, po, 24.8 mg/kg; remark: listed apart in the source
Description: Oral availability in C57BL/6J mouse at 24.8 mg/kg by LC-MS/MS analysis

in vivo [21] = details: C57BL/6J, mouse, po, 24.8 mg/kg; remark: listed apart in the source
Description: Total Cmax in C57BL/6J mouse plasma at 24.8 mg/kg, po and 1.8 mg/kg, iv by LC-MS/MS analysis

in vivo [22] = details: C57BL/6J, mouse, po, 24.8 mg/kg; remark: listed apart in the source
Description: Total AUC last in C57BL/6J mouse plasma at 24.8 mg/kg, po and 1.8 mg/kg, iv by LC-MS/MS analysis

in vivo [23] = details: C57BL/6J, mouse, po, 24.8 mg/kg; remark: listed apart in the source
Description: Total Cmax in C57BL/6J mouse lungs at 24.8 mg/kg, po and 1.8 mg/kg, iv by LC-MS/MS analysis

in vivo [24] = details: C57BL/6J, mouse, po, 24.8 mg/kg; remark: listed apart in the source
Description: Total AUC last in C57BL/6J mouse lungs at 24.8 mg/kg, po and 1.8 mg/kg, iv by LC-MS/MS analysis

[25] = Half life in C57BL/6J mouse at 30 mg/kg, po and 2 mg/kg, iv by LC-MS/MS analysis; details: in vivo
[26] = Oral absorption in C57BL/6J mouse at 30 mg/kg by LC-MS/MS analysis; details: in vivo
in vivo [27] = details: C57BL/6J, mouse, po, 30 mg/kg
in vivo [28] = details: C57BL/6J, mouse, plasma, po, 30 mg/kg
in vivo [29] = details: C57BL/6J, mouse, plasma, po, 30 mg/kg; remark: listed apart in the source
in vivo [30] = details: C57BL/6J, mouse, lung, po, 30 mg/kg
in vivo [31] = details: C57BL/6J, mouse, lung, po, 30 mg/kg; remark: listed apart in the source
[32] = Clearance in C57BL/6J mouse at 1.4 mg/kg, iv by UPLC-MS/MS analysis; details: in vivo
in vivo [33] = details: C57BL/6J, mouse, po, 24.3 mg/kg
Description: Half life in C57BL/6J mouse at 24.3 mg/kg, po and 1.4 mg/kg, iv by UPLC-MS/MS analysis

in vivo [34] = details: C57BL/6J, mouse, po, 24.3 mg/kg; remark: listed apart in the source
Description: Oral absorption in C57BL/6J mouse at 24.3 mg/kg by UPLC-MS/MS analysis

in vivo [35] = details: C57BL/6J, mouse, po, 24.3 mg/kg; remark: listed apart in the source
Description: Oral bioavailability in C57BL/6J mouse at 24.3 mg/kg by UPLC-MS/MS analysis

in vivo [36] = details: C57BL/6J, mouse, plasma, po, 24.3 mg/kg
Description: Total Cmax in C57BL/6J mouse plasma at 24.3 mg/kg, po and 1.4 mg/kg, iv by UPLC-MS/MS analysis

in vivo [37] = details: C57BL/6J, mouse, plasma, po, 24.3 mg/kg; remark: listed apart in the source
Description: Total AUClast in C57BL/6J mouse plasma at 24.3 mg/kg, po and 1.4 mg/kg, iv by UPLC-MS/MS analysis

in vivo [38] = details: C57BL/6J, mouse, lungs, po, 24.3 mg/kg
Description: Total Cmax in C57BL/6J mouse lungs at 24.3 mg/kg, po and 1.4 mg/kg, iv by UPLC-MS/MS analysis

in vivo [39] = details: C57BL/6J, mouse, lungs, po, 24.3 mg/kg; remark: listed apart in the source
Description: Total AUClast in C57BL/6J mouse lungs at 24.3 mg/kg, po and 1.4 mg/kg, iv by UPLC-MS/MS analysis

in vivo [40] = details: C57BL/6J, mouse, lung and plasma, po, 24.3 mg/kg
Description: Ratio of total AUC in lung to plasma in C57BL/6J mouse at 24.3 mg/kg, po and 1.4 mg/kg, iv by UPLC-MS/MS analysis

in vivo [41] = details: C57BL/6J, mouse, po, 26.5 mg/kg
Description: Half life in C57BL/6J mouse at 26.5 mg/kg, po and 2 mg/kg, iv by LC-MS/MS analysis

in vivo [42] = details: C57BL/6J, mouse, po, 26.5 mg/kg; remark: listed apart in the source
Description: Oral absorption in C57BL/6J mouse at 26.5 mg/kg by LC-MS/MS analysis

in vivo [43] = details: C57BL/6J, mouse, po, 26.5 mg/kg; remark: listed apart in the source
Description: Oral bioavailability in C57BL/6J mouse at 26.5 mg/kg by LC-MS/MS analysis

in vivo [44] = details: C57BL/6J, mouse, plasma, po, 26.5 mg/kg
Description: Total Cmax in C57BL/6J mouse plasma at 26.5 mg/kg, po and 2 mg/kg, iv by LC-MS/MS analysis

in vivo [45] = details: C57BL/6J, mouse, plasma, po, 26.5 mg/kg; remark: listed apart in the source
Description: Total AUC last in C57BL/6J mouse plasma at 26.5 mg/kg, po and 2 mg/kg, iv by LC-MS/MS analysis

in vivo [46] = details: C57BL/6J, mouse, lung, po, 26.5 mg/kg
Description: Total Cmax in C57BL/6J mouse lungs at 26.5 mg/kg, po and 2 mg/kg, iv by LC-MS/MS analysis

in vivo [47] = details: C57BL/6J, mouse, lung, po, 26.5 mg/kg; remark: listed apart in the source
Description: Total AUC last in C57BL/6J mouse lungs at 26.5 mg/kg, po and 2 mg/kg, iv by LC-MS/MS analysis

Sequence of Lysophosphatidic acid receptor 2 (Homo sapiens, UniProt Q9HBW0) (Q9HBW0 whole entry): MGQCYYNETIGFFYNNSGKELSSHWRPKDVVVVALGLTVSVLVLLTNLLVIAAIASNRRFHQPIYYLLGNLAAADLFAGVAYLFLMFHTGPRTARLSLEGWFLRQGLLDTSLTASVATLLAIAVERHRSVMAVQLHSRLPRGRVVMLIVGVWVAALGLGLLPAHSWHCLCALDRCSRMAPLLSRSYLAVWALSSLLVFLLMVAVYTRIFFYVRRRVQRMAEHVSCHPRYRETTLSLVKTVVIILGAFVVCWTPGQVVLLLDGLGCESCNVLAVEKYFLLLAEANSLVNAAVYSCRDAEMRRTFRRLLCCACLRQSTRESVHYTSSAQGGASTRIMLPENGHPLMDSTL
T1 sequence (Q9JL06 whole entry): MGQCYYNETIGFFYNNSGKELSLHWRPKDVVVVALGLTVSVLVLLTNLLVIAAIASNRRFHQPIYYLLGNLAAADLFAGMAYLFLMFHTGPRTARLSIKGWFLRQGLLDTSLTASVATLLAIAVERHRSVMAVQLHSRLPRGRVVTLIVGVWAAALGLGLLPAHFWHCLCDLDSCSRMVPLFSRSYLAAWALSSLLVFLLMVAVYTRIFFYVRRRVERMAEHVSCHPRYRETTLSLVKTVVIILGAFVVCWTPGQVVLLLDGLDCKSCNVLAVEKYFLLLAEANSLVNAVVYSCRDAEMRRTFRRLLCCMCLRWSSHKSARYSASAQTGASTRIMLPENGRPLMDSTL
Sequence of Lysophosphatidic acid receptor 1 (Q92633 whole entry): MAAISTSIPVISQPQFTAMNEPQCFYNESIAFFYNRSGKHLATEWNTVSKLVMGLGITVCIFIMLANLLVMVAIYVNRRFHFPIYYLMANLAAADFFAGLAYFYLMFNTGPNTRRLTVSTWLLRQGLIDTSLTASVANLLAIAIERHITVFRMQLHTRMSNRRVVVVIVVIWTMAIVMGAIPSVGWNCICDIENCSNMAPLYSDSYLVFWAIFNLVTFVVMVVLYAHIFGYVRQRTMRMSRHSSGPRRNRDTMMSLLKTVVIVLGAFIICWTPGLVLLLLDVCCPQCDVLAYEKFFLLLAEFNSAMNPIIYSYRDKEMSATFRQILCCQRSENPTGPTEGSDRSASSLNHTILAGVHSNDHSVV
Sequence of Lysophosphatidic acid receptor 4 (Q99677 whole entry): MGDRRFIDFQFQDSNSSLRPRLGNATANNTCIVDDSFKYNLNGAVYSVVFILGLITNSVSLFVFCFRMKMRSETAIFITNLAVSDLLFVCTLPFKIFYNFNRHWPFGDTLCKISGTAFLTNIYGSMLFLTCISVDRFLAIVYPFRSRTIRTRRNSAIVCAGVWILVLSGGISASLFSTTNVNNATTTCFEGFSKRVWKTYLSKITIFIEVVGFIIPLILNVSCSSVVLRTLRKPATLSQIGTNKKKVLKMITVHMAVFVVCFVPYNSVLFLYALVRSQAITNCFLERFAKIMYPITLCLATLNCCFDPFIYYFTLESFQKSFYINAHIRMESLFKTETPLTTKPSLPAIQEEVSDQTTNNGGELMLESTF
Sequence of Lysophosphatidic acid receptor 5 (Q9H1C0 whole entry): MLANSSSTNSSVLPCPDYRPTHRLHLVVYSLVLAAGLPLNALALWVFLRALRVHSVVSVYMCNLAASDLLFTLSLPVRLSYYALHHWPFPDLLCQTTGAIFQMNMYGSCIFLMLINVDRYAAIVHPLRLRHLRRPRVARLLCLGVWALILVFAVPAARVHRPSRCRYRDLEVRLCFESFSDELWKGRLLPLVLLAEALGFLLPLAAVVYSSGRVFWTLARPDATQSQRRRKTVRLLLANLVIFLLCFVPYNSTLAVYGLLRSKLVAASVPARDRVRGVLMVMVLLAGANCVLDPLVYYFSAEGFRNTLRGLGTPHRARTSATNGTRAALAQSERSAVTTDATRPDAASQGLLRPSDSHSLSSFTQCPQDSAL

Row | SMILES | IC50 ([1]; read-out: pIC50 (converted)) [nM] | efflux ratio at 1 h, 10 µM [2] | fraction unbound at 5 h, 0.5 µM [3] | fraction unbound at 5 h, 0.5 µM [4] | fraction unbound at 5 h, 5 µM [5] | Papp A→B at 1 h, 10 µM [7] [×10⁻⁶ cm/s] | Papp B→A at 1 h, 10 µM [8] [×10⁻⁶ cm/s] | IC50 [9] [nM] | IC50 [11] [µM] | microsomal CLint at 0.75 h, 0.5 µM (in vitro [16]) [µL/min/mg] | microsomal CLint at 0.75 h, 0.5 µM (in vitro [17]) [µL/min/mg] | half-life [25] [min] | Fa [26] [%] | bioavailability (in vivo [27]) [%] | Cmax (in vivo [28]) [µg/mL] | AUC(0-t) (in vivo [29]) [µg·h/mL] | Cmax (in vivo [30]) [ng/mL] | AUC(0-t) (in vivo [31]) [ng·h/mL] | also measured
1 | COC(=O)Nc1nc(C)c(S(=O)(=O)N2CCN(C[C@H](C)Nc3ncnc4c(-c5sc(C)nc5C)cccc34)CC2)s1 | 6.92 | 0.6 | 0.0002 | 0.0372 | 0.022 | 9.2 | 5.39 | 0.251 | > 0.501 | 15 | 15 | 113 | 76 | 64 | 72.3 | 230 | 19900 | 56200 | 
2 | COC(=O)Nc1nc(C)c(S(=O)(=O)N2CCN(C[C@H](C)Nc3ncnc4c(C)csc34)CC2)s1 |  | 1.7 | < 0.01 | 0.0023 | 0.0385 | 8.12 | 13.5 | 479 | > 50.1 | 80 | 156 |  |  |  |  |  |  |  | IC50 ([1]; read-out: IC50): 7080 nM; clearance [32]: 0.82 mL/min/kg; IC50 [12]: > 50.1 µM; IC50 [13]: 24 µM; half-life (in vivo [33]): 130 min; Fa (in vivo [34]): 91%; bioavailability (in vivo [35]): 85%; Cmax (in vivo [36]): 91.3 µg/mL; AUC(0-t) (in vivo [37]): 435 µg·h/mL; Cmax (in vivo [38]): 25300 ng/mL; AUC(0-t) (in vivo [39]): 119 µg·h/mL; Kp (in vivo [40]): 0.27
3 | COC(=O)Nc1nc(C)c(S(=O)(=O)N2CCN(C[C@H](C)Nc3ncnc4c(-c5ccc(C)nc5)cccc34)CC2)s1 | 4.17 | 5.7 | < 0.01 | 0.0011 | 0.0175 |  |  | 2.45 | > 50.1 | 34 | 49 |  |  |  |  |  |  |  | half-life (in vivo [41]): 100 min; Fa (in vivo [42]): 97%; bioavailability (in vivo [43]): 87%; Cmax (in vivo [44]): 71.5 µg/mL; AUC(0-t) (in vivo [45]): 280 µg·h/mL; Cmax (in vivo [46]): 15400 ng/mL; AUC(0-t) (in vivo [47]): 50500 ng·h/mL
4 | COC(=O)Nc1nc(C)c(S(=O)(=O)N2CCN(C[C@H](C)Nc3ncnc4c(-c5cccc(CN(C)C)c5)cccc34)CC2)s1 | 4.79 | 60 | 0.0003 | 0.0124 | 0.0177 | 0.18 | 10.6 | 0.331 | > 50.1 | 38 | 108 | 156 | 17 | 16 | 12.1 | 34.2 | 7030 | 43200 | 

Further molecules by falling IC50 [9], results first:

Row | IC50 ([1]; read-out: pIC50 (converted)) [nM] | efflux ratio at 1 h, 10 µM [2] | fraction unbound at 5 h, 0.5 µM [3] | fraction unbound at 5 h, 0.5 µM [4] | fraction unbound at 5 h, 5 µM [5] | Papp A→B at 1 h, 10 µM [7] [×10⁻⁶ cm/s] | Papp B→A at 1 h, 10 µM [8] [×10⁻⁶ cm/s] | IC50 [9] [nM] | IC50 [11] [µM] | microsomal CLint at 0.75 h, 0.5 µM (in vitro [16]) [µL/min/mg] | microsomal CLint at 0.75 h, 0.5 µM (in vitro [17]) [µL/min/mg] | half-life [25] [min] | Fa [26] [%] | bioavailability (in vivo [27]) [%] | Cmax (in vivo [28]) [µg/mL] | AUC(0-t) (in vivo [29]) [µg·h/mL] | Cmax (in vivo [30]) [ng/mL] | AUC(0-t) (in vivo [31]) [ng·h/mL] | SMILES | also measured
5 | 295 | 1 | 0.004 | 0.0065 | 0.001 | 0.89 | 0.91 | 676 | 9.77 | 758 | > 759 |  |  |  |  |  |  |  | Cc1csc2c(N[C@@H](C)CN3CCN(S(=O)(=O)c4ccc(Cl)c(Cl)c4)CC3)ncnc12 | half-life [6]: 60 min; IC50 [10]: 324 nM; IC50 [12]: 38.9 µM; IC50 [13]: 6.31 µM; IC50 [14]: > 50.1 µM; bioavailability (in vivo [15]): 0.23%
6 | 28.2 | 6.3 | < 0.01 | 0.0043 | 0.0185 | 1.47 | 9.29 | 0.759 | > 50.1 | 89 | 94 | 79.2 | 96 | 92 | 76.2 | 124 | 15100 | 25800 | COC(=O)Nc1nc(C)c(S(=O)(=O)N2CCN(C[C@H](C)Nc3ncnc4c(-c5c(C)noc5C)cccc34)CC2)s1 | 
7 | 2.04 | 2.9 | < 0.01 | 0.0015 | 0.0122 | 2.23 | 6.41 | 0.347 | > 50.1 | 52 | 125 |  |  |  |  |  |  |  | COC(=O)Nc1nc(C)c(S(=O)(=O)N2CCN(C[C@H](C)Nc3ncnc4c(-c5cn(C)nc5C(F)(F)F)cccc34)CC2)s1 | half-life (in vivo [18]): 101 min; Fa (in vivo [19]): 100%; bioavailability (in vivo [20]): 89%; Cmax (in vivo [21]): 70.1 µg/mL; AUC(0-t) (in vivo [22]): 418 µg·h/mL; Cmax (in vivo [23]): 19000 ng/mL; AUC(0-t) (in vivo [24]): 78000 ng·h/mL
